Measured values: patent EP1021178B1, “SELENOPHENE ANTI-TUMOR AGENTS” (Purdue Research Foundation, priority 1996, dated 1997)

Experiments:
Test in all cases: NCI human tumor cell panel
MDA-MB-435 = conditions: for CC50: MDA-MB-435, read-out: Log10 LC50 (converted)
OVCAR-8 = conditions: OVCAR-8, read-out: Log10 LC50 (converted)
SF-295 = conditions: for CC50: SF-295, read-out: Log10 LC50 (converted)
KM12 = type: cell-based; conditions: KM12, read-out: Log10 LC50 (converted)
Description: (§1) Considering the diversity of tumors in terms of cell type, morphology, growth rate and other cellular characteristics, the U.S. National Cancer Institute (NCI) has developed a "disease-oriented" approach to antitumor activity screening (M.R. Boyd, in "Principle of Practice of Oncology" J.T. Devita, S. Hellman, S.A. Rosenberg (Eds.) Vol. 3, PPO Update, No. 10, 1989). This in vitro prescreening system is based on the measurement of antitumor cytotoxicity against human tumor cell line panels consisting of approximately 60 cell lines of major human tumors (including leukemia and slower growing tumor cells such as lung, colon, breast, skin, kidney, etc.). The most important advantage of the new in vitro screening panels is the opportunity to identify compounds that are selectively more cytotoxic to cells of slowly growing solid tumors than to rapidly growing leukemia cells.
(§2) The cytotoxic activity of the present selenophene compounds have been measured utilizing two different assays or screens. The first screen measures the cytotoxicity against a panel of sixty different human tumor cell lines. This assay provides data regarding the general cytotoxicity of an individual compound. In particular this type of assay is useful in identifying compounds which have enhanced cytotoxic activity against slow growing tumors as compared to faster growing tumor cells such as leukemia tumor cell lines. The identification of such compounds is critical since previously identified antitumor agents have low cytotoxic activity against slower growing tumors. […] The specificity of a cytotoxic compound for tumor cell lines relative to normal cells is an important characteristic of an effective antitumor agent.
(§3) Antitumor cytotoxicity data generated from the National Cancer Institute human tumor cell panels can also be expressed in a graphic pattern (mean graph) to display differential cell growth inhibition (K.D. Paull, R.H. Shoemaker, L. Hodes, A. Monks, D.A. Scudiero, L. Rubinstein, J. Plowman and M.R. Boyd, J. Nail. Cancer Inst., 81, 1088, 1989.) In the mean graph, the arithmetic mean of the logarithm of the GI50 (50% growth inhibition), TGI (total growth inhibition) or LC50 (50% lethal concentration) values is used as an anchor point. […] The length of a bar is indicative of differential cytotoxicity against a specific type of tumor cells or tumor panels.
(§4) The antitumor cytotoxicity of the selenophene compounds tested in those in vitro assays was measured by a microculture assay using either a 3-(4,5-dimethylthiazol-2-yl)-2,5-diphenyltetrazolium bromide (MTT) or sulforhodamine B (SRB) based assay. [M.R. Boyd in "Principles and Practices of Oncology," V.T. DeVita, Jr.]. The experiments were conducted at Purdue University in 96-well microtiter plates and the cytotoxic effects of the selenophene compounds on those cells were measured by cell count using a Coulter Z.F. counter (Hialeah, FL). The results are expressed as GI50, the concentration of drug at which cell numbers are reduced to 50% of control cell culture [T.C.K. Chan, C.J. Chang, N.M. Koonchanok and R.L. Geahlen, Biochem. Biophys. Res. Commun., 193, 1152, (1993); S. Hellman and S.A. Rosenberg (Eds.), Vol. 3, PPO Updates, Number 10, (1989).]
(§5) This in vitro microculture assay has an advantage over in vivo assays in that results are obtained within a week as opposed to several months. The MTT assay is based on the production of a dark blue formazan product by dehydrogenase in the mitochondria of live tumor cells after exposure to drug for 6 days [M.C. Alley, D.A. Scudiero, A. Monks, M.L. Hursey, M.J. Czerwinski, D.L. Fine, B.J. Abbott, J.G. Mayo, R.H. Shoemaker and M.R. Boyd, Cancer Res., 48, 589, 1988]. Thus, only live cells are stained and can be measured at 570 nm. […]

ACHN = type: cell-based; conditions: read-out: Log10 LC50 (converted)
Description: as §1, §2, §3, §4, §5

OVCAR-5 = type: cell-based; conditions: OVCAR-5, read-out: Log10 LC50 (converted)
Description: as §1, §2, §3, §4, §5

SW-620 = type: cell-based; conditions: SW-620, read-out: Log10 LC50 (converted)
Description: as §1, §2, §3, §4, §5

LOX IMVI = type: cell-based; conditions: read-out: Log10 LC50 (converted)
Description: as §1, §2, §3, §4, §5

MDA-N = type: cell-based; conditions: read-out: Log10 LC50 (converted)
Description: as §1, §2, §3, §4, §5

MCF7 = type: cell-based; conditions: MCF7, read-out: Log10 LC50 (converted)
Description: as §1, §2, §3, §4, §5

PC-3 = type: cell-based; conditions: PC-3, read-out: Log10 LC50 (converted)
Description: as §1, §2, §3, §4, §5

SK-MEL-2 = type: cell-based; conditions: SK-MEL-2, read-out: Log10 LC50 (converted)
Description: as §1, §2, §3, §4, §5

CCRF-CEM = type: cell-based; conditions: read-out: Log10 LC50 (converted)
Description: as §1, §2, §3, §4, §5

HS 578T = type: cell-based; conditions: read-out: Log10 LC50 (converted)
Description: as §1, §2, §3, §4, §5

SN12C = type: cell-based; conditions: read-out: Log10 LC50 (converted)
Description: as §1, §2, §3, §4, §5

MCF7/ADR-RES = type: cell-based; conditions: MCF7, read-out: Log10 LC50 (converted)
Description: as §1, §2, §3, §4, §5

U251 = type: cell-based; conditions: U-251, read-out: Log10 LC50 (converted)
Description: as §1, §2, §3, §4, §5

SNB-75 = conditions: SNB-75, read-out: Log10 LC50 (converted)
SK-MEL-5 = conditions: SK-MEL-5, read-out: Log10 LC50 (converted)
HT29 = conditions: HT-29, read-out: Log10 LC50 (converted)
TK-10 = conditions: TK-10, read-out: Log10 LC50 (converted)
EKVX = conditions: read-out: Log10 LC50 (converted)

O=Cc1ccc(-c2ccc(-c3ccc(C=O)[se]3)[se]2)[se]1
> 100 µM: CC50 (MDA-MB-435) | CC50 (OVCAR-8) | CC50 (SF-295) | CC50 (KM12) | CC50 (ACHN) | CC50 (OVCAR-5) | CC50 (SW-620) | CC50 (LOX IMVI) | LC50 (50% lethal concentration) (MDA-N) | CC50 (MCF7) | CC50 (PC-3) | CC50 (SK-MEL-2) | CC50 (CCRF-CEM) | CC50 (HS 578T) | CC50 (SN12C) | CC50 (MCF7/ADR-RES) | CC50 (U251) | CC50 (SNB-75) | CC50 (SK-MEL-5) | CC50 (HT29) | CC50 (TK-10) | CC50 (EKVX)

OCc1ccc(-c2ccc(-c3cccs3)[se]2)s1
> 100 µM: CC50 (MDA-MB-435) | CC50 (OVCAR-8) | CC50 (SF-295) | CC50 (KM12) | CC50 (ACHN) | CC50 (OVCAR-5) | CC50 (SW-620) | CC50 (LOX IMVI) | LC50 (50% lethal concentration) (MDA-N) | CC50 (MCF7) | CC50 (PC-3) | CC50 (SK-MEL-2) | CC50 (CCRF-CEM) | CC50 (HS 578T) | CC50 (SN12C) | CC50 (MCF7/ADR-RES) | CC50 (U251) | CC50 (SNB-75) | CC50 (SK-MEL-5) | CC50 (HT29) | CC50 (TK-10) | CC50 (EKVX)

OCc1ccc(-c2ccc(-c3ccc(CO)[se]3)s2)[se]1
> 100 µM: CC50 (MDA-MB-435) | IC (TGI) (MDA-MB-435; MDA-MB-435, read-out: Log10 TGI) | CC50 (OVCAR-8) | CC50 (SF-295) | CC50 (KM12) | CC50 (ACHN) | CC50 (SW-620) | CC50 (LOX IMVI) | LC50 (50% lethal concentration) (MDA-N) | CC50 (MCF7) | CC50 (PC-3) | CC50 (SK-MEL-2) | CC50 (CCRF-CEM) | CC50 (HS 578T) | CC50 (SN12C) | CC50 (MCF7/ADR-RES) | CC50 (SNB-75) | CC50 (SK-MEL-5) | CC50 (HT29) | CC50 (TK-10) | CC50 (EKVX)
46.8 µM: CC50 (U251)
0.776 µM: CC50 (OVCAR-5)

O=Cc1ccc(-c2ccc(-c3ccc(C=O)[se]3)s2)s1
> 100 µM: CC50 (MDA-MB-435) | CC50 (OVCAR-8) | CC50 (SF-295) | IC (TGI) (SF-295; SF-295, read-out: Log10 TGI) | CC50 (KM12) | CC50 (ACHN) | CC50 (OVCAR-5) | CC50 (SW-620) | CC50 (LOX IMVI) | LC50 (50% lethal concentration) (MDA-N) | CC50 (MCF7) | CC50 (PC-3) | CC50 (SK-MEL-2) | CC50 (CCRF-CEM) | CC50 (HS 578T) | CC50 (SN12C) | CC50 (MCF7/ADR-RES) | CC50 (U251) | CC50 (SNB-75) | CC50 (SK-MEL-5) | CC50 (HT29) | CC50 (EKVX)
61.7 µM: CC50 (TK-10)
